Measured values reported in ChEMBL document CHEMBL1147440, “Pyrazino[1,2-a]indoles as novel high-affinity and selective imidazoline I(2) receptor ligands” (Bioorg Med Chem Lett, 2004).

Columns and labels:
[1] = Displacement of [3H]2-BFI from imidazoline receptor I-2; design: species or system Rattus norvegicus
[2] = target: T1, Adrenergic receptor alpha-2 (Rattus norvegicus, UniProt P22086+P19328+P22909); assay: Displacement of [3H]RX-821002 from alpha-2 adrenergic receptor; assay type: protein assay
T1 sequence (P22086 whole entry): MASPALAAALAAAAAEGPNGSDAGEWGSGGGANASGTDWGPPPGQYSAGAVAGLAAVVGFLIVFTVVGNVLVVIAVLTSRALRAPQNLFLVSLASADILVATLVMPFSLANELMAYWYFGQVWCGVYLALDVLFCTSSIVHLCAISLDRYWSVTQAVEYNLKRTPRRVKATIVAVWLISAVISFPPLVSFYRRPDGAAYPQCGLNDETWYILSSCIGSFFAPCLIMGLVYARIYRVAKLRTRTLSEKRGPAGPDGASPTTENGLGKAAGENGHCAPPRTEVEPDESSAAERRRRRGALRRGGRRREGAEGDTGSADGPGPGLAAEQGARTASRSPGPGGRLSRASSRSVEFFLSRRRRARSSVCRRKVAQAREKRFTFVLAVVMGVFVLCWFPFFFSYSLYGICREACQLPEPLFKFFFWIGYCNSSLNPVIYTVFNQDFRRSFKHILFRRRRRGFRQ
T1 sequence (P19328 whole entry): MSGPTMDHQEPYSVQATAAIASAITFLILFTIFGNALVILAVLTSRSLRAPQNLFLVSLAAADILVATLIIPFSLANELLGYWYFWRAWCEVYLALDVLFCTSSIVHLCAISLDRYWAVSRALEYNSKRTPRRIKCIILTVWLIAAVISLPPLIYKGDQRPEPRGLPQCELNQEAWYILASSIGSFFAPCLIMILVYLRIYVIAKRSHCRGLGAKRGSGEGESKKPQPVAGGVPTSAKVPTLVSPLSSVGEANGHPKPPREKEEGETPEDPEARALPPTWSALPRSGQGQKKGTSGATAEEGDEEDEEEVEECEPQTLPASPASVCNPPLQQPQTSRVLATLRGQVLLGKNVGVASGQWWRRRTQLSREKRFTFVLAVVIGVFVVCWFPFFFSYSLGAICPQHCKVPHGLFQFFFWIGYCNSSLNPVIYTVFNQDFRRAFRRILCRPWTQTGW
T1 sequence (P22909 whole entry): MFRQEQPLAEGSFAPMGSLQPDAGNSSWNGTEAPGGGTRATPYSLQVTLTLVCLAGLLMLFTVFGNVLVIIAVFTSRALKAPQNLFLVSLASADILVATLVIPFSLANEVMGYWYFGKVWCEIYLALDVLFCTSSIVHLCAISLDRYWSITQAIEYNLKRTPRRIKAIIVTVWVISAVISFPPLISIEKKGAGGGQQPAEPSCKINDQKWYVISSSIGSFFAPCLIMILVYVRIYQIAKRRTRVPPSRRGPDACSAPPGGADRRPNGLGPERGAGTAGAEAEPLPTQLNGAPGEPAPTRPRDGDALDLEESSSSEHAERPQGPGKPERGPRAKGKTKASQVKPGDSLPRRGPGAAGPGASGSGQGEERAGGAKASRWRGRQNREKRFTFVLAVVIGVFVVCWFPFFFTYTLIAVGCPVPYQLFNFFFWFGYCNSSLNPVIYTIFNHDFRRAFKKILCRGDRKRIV

[3] = target: 5-hydroxytryptamine receptor 2A (Rattus norvegicus, UniProt P14842); assay: Binding affinity for 5-hydroxytryptamine 2A serotonin receptor
Chain of 5-hydroxytryptamine receptor 2A (P14842 whole entry): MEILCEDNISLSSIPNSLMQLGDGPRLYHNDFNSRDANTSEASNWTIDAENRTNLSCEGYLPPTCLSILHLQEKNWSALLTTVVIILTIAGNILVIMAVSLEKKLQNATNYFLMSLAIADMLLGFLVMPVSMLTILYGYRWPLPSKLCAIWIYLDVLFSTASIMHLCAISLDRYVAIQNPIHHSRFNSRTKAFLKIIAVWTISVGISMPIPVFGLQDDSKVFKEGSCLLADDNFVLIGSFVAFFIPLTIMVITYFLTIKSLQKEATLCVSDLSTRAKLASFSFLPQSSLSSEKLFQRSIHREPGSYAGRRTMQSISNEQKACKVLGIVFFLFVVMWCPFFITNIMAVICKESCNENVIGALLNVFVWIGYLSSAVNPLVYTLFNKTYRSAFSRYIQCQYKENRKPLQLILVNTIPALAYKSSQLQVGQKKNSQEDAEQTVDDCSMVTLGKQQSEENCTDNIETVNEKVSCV

| Structure (SMILES) | Ki [1] | Ki [2] | IC50 [1] | Ki [3] |
| --- | --- | --- | --- | --- |
| COc1ccc2[nH]c3c(c2c1)CCNC3 | 1640 nM | – | – | – |
| C1=NCCc2c1[nH]c1ccccc21 | 7.3 nM | – | – | – |
| c1ccc2oc(C3=NCCN3)cc2c1 | < 10 nM | – | – | – |
| COc1ccc2cc3n(c2c1)CCNC3 | 250 nM | 4510 nM | – | – |
| COc1ccc2[nH]c3c(c2c1)CCN=C3 | 480 nM | – | – | – |
| COc1ccc2c3c([nH]c2c1)C=NCC3 [CGS-19281A] | 18 nM | – | – | – |
| c1ccc2c3c([nH]c2c1)CNCC3 [TRYPTOLINE] | 9.4 nM | 1600 nM | – | – |

Results, then the compound that gave them:

| Ki [1] | Ki [2] | IC50 [1] | Ki [3] | Structure (SMILES) |
| --- | --- | --- | --- | --- |
| 9910 nM | 1600 nM | – | – | c1ccc2c3c([nH]c2c1)C1=NCCN1CC3 |
| 6.2 nM | 9550 nM | 8280 nM | 9930 nM | COc1ccc2c(c1)cc1n2CCNC1 |
| 6.5 nM | 516 nM | – | – | c1ccc2c(c1)cc1n2CCNC1 |
| 6790 nM | 13400 nM | – | – | c1ccc2c(c1)nc1n2CCNC1 |
